Data on three compounds can be found in US6458978B1, “Fluorous phosphines and process for their preparation” (Atofina Vlissingen B.V., priority 1998, dated 2002).

For series [1] the following is noted: c-C6F11CF3/toluene at 27° C.; cited from earlier work.
A short description of series [2]: Hydrogenation of 1-octene under single phase conditions in α,α,α-trifluorotoluene. The conditions noted are these: [Rh] 4.0 mM, [1-octene] 1.46 M; T = 80° C., p(H2) = 1 bar, α,α,α-trifluorotoluene. How it is done:
To be able to directly compare the activities of fluorous derivatives H{1,6} and H{1,8} with non-fluorous [P(C6H4-4-SiMe3)3]3RhCl (H{0}) and the conventional Wilkinson catalyst (PPh3)3RhCl, homogeneous hydrogenation of 1-octene were carried out under single phase conditions in the hybrid solvent α,α,α-trifluorotoluene at atmospheric H2 pressures. Highest rates of hydrogen uptake (14.2 mol.L^−1.h^−1) were measured for 1c at relatively high rhodium and olefine concentrations (entry 2, Table 7). Under these conditions a zero-order dependence in [1-octene] was found up to ca 80% conversion resulting in a linear conversion versus time plot. In all other experiments ([Rh]=4.0-8.0 mM, [1-octene]0=1.46 M) rates of hydrogen uptake were lower (<11 mol.L^−1.h^−1) and conversion versus time plots corresponded to a rate law -d[1-octene]/dt=kobs.[1-octene] for >98% conversion allowing to evaluate catalyst activity in terms of the observed first order rate constant kobs. Since for these experiments the rates of dihydrogen uptake were well below the maximum value obtained in entry 2, diffusion limitation of H2 can be excluded. In addition to kobs, turn over frequencies (TOF in mol.mol^−1.h^−1) were derived from the tangent of a 4^thorder polynomal fit to conversion versus time plots at 25% conversion and serve as a measure of catalyst activity independent of any assumed kinetic relationship with substrate.
Catalytic reactions were carried out under single phase conditions in CF3C6H5 at 80° C. under 1 bar of hydrogen pressure. After >90% conversion (monitored by the H2 uptake) volatiles were distilled off and analyzed by GC. Activities (TOF) were determined for 25% conversion.

The conditions of series [3]: hydrogenation of 1-heptene in benzene; cited from earlier work.

In the case of `FC(F)(F)C(F)(F)C(F)(F)C(F)(F)C(F)(F)C(F)(F)CCP(CCC(F)(F)C(F)(F)C(F)(F)C(F)(F)C(F)(F)C(F)(F)F)CCC(F)(F)C(F)(F)C(F)(F)C(F)(F)C(F)(F)C(F)(F)F` [P [(CH2)2(CF2)nCF3)3]3 (n=7)], the “Partition coefficient P” value in series [1] is 332.

As for `[Cl-].[Rh].c1ccc(P(c2ccccc2)c2ccccc2)cc1.c1ccc(P(c2ccccc2)c2ccccc2)cc1.c1ccc(P(c2ccccc2)c2ccccc2)cc1` [(PPh3)3RhCl], in series [2], the “TOF(25%), turn over frequency at 25% conversion” value was found to be 960 h⁻¹; the “TON (mole of olefin/mole of Rh)” value is recorded as 358; the conversion was found to be 98%; the “kobs (first order rate constant)” value is 4.0(1) h^−1. Besides, in series [3], the TOF was 150 to 600 h⁻¹.

Take `FC(F)(F)C(F)(F)C(F)(F)C(F)(F)C(F)(F)C(F)(F)CCP(CCC(F)(F)C(F)(F)C(F)(F)C(F)(F)C(F)(F)C(F)(F)F)CCC(F)(F)C(F)(F)C(F)(F)C(F)(F)C(F)(F)C(F)(F)F` [P [(CH2)2(CF2)nCF3)3]3 (n=5)]: the “Partition coefficient P” value in series [1] was 82.
